Test results: patent US20250049831A1, “ANTIVIRAL USE OF BISE[…], AND BISEPOXYLIGNAN COMPOSITION AND PREPARATION OF BISE[…]” (priority 2021, published 2025)

How the values were obtained:
[1] = system: COVID-19 virus Delta variant; type: cell-based
[2] = system: COVID-19 virus Beta variant; type: cell-based

Row | Compound | COVID-19 Delta virus SI [1] | COVID-19 Beta virus SI [2]
1 | COc1cc(O)cc(C2OCC3C(c4ccc(OC5OC(CO)C(O)C(O)C5O)c(OC)c4)OCC23)c1 (centres unmarked) [compound 1] | 7.14 | 7.64
2 | COc1ccc([C@H]2OC[C@H]3[C@@H]2CO[C@H]3c2ccc(O[C@@H]3O[C@H](CO)[C@@H](O)[C@H](O)[C@H]3O)c(OC)c2)cc1OC [compound 2] | 6.86 | 7.10
3 | COc1ccc(C2OCC3C(c4ccc(OC)c(OC)c4)OCC23)cc1O (centres unmarked) [compound 3] | 2.11 | 2.12
4 | COc1ccc(C2OCC3C(c4ccc(OC(=O)C(C)c5ccc(CC(C)C)cc5)c(OC)c4)OCC23)cc1OC (centres unmarked) [compound 6] | 1.79 | 3.43
